Consider ten compounds from patent US20120196854A1, “PHARMACEUTICAL COMPOSITION COMPRISING AROMATIC HETEROCYCLIC COMPOUND” (Kyowa Hakko Kirin Co., Ltd., priority 2009, published 2012).

A value given as a limit tells only on which side of the number the result lay.

In one assay the target is T1, human H-PGDS (Homo sapiens, UniProt O60760).
T1 construct: purchased Cayman Chemical 10006593
T1 sequence (O60760 whole entry): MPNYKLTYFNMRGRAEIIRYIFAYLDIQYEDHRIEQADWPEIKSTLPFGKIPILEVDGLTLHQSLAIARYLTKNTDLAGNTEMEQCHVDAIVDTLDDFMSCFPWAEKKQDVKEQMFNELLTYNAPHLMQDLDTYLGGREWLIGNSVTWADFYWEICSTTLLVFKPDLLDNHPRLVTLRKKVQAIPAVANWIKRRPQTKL
Briefly: H-PGDS inhibitory activity (Prostaglandin D Synthase Inhibitor Screening Assay Kit). Format: biochemical. The note with it: at a concentration of 1 μmol/L; read-out: H-PGDS inhibitory rate. The method, then: The H-PGDS inhibitory activity of Compound (I) was calculated according to the following protocol attached to Prostaglandin D Synthase Inhibitor Screening Assay Kit (Cat. No. 10006595, Cayman Chemical, Ann Arbor, Mich., USA).
(§1) First, to a 96-well round-bottom plate (Cat. No. 3882-096, Asahi Techno Glass, Chiba), 60 μL/well of an enzyme assay buffer (0.1 mol/L Tris-HCl, pH 8.0), 10 μL/well of a human H-PGDS [Cat. No. 10006593 (human), Cayman Chemical, Ann Arbor, Mich., USA] at a final concentration of 0.125 μg/mL, 10 μL/well of reduced glutathione at a final concentration of 1 mmol/L, and 10 μL/well of Compound (I) diluted with the enzyme assay buffer were added and lightly mixed. The plate was allowed to stand at room temperature for 10 minutes, and then 10 μL/well of prostaglandin H2(PGH2) (Cat. No. 17020, Cayman Chemical) at a final concentration of 50 μmol/L was added thereto to start enzyme reaction. The reaction was allowed to proceed with mixing by a plate mixer for 1 minute. After the enzyme reaction, 10 μL/well of a 4 mg/mL FeCl2-HCl solution prepared by dissolving FeCl2 in 1 mol/L hydrochloric acid was added to stop the reaction and reduce PGH2 simultaneously. The enzyme reaction solution (100 μL/well) was transferred to a 96-well UV-Star half area plate (Cat. No. 675801, Greiner, Frickenhausen, Germany), and measured for absorbance at 232 nm using a microplate reader Power Wave (BioTek Instrument Inc., Winooski, Vt., USA).
The H-PGDS inhibitory activity (inhibitory rate) of Compound (I) was calculated by the following formula.
The H-PGDS inhibitory activity of Compound 133 was calculated according to the following protocol attached to Prostaglandin D Synthase Inhibitor Screening Assay Kit (Cat. No. 10006595, Cayman Chemical, Ann Arbor, Mich., USA).
as §1, with “133” for “(I)”
The H-PGDS inhibitory activity (inhibitory rate) of Compound 133 was calculated according to the method in Test Example 1.
In the case of `CS(=O)(=O)Nc1ccc(-c2cc(C(=O)O)c3c(ccc4nn(-c5ccccc5)nc43)n2)cc1` [Compound 6, 7-(4-methanesulfonylaminophenyl)-2-phenyl-2H[1,2,3]triazolo[4,5-f]quinoline-9-carboxylic acid], the inhibition at 1 µM was at least 80%.

Consider `CS(=O)(=O)NC(=O)c1ccc(-c2cc(C(=O)O)c3c(ccc4nn(-c5ccccc5)nc43)n2)cc1` [Compound 13, 7-(4-methanesulfonylaminocarbonylphenyl)-2-phenyl-2H[1,2,3]triazolo[4,5-f]quinoline-9-carboxylic acid], for which the inhibition at 1 µM is at least 80%.

Take `O=C(O)c1cc(-c2ccc(NS(=O)(=O)c3ccccc3)cc2)nc2ccc3nn(-c4ccccc4)nc3c12` [Compound 15, 7-(4-benzenesulfonylaminophenyl)-2-phenyl-2H[1,2,3]triazolo[4,5-f]quinoline-9-carboxylic acid]: the inhibition at 1 µM was at least 80%.

Regarding `CS(=O)(=O)NC(=O)c1cccc(-c2cc(C(=O)O)c3c(ccc4nn(-c5ccccc5)nc43)n2)c1` [Compound 17, 7-(3-methanesulfonylaminocarbonylphenyl)-2-phenyl-2H[1,2,3]triazolo[4,5-f]quinoline-9-carboxylic acid], the inhibition at 1 µM is at least 80%.

Turning to `O=C(NS(=O)(=O)c1ccccc1)c1cccc(-c2cc(C(=O)O)c3c(ccc4nn(-c5ccccc5)nc43)n2)c1` [Compound 26, 7-(3-benzenesulfonylaminocarbonylphenyl)-2-phenyl-2H[1,2,3]triazolo[4,5-f]quinoline-9-carboxylic acid], the inhibition at 1 µM is at least 80%.

With `O=C(NS(=O)(=O)c1ccccc1)c1ccc(-c2cc(C(=O)O)c3c(ccc4nn(-c5ccccc5)nc43)n2)cc1` [Compound 28, 7-(4-benzenesulfonylaminocarbonylphenyl)-2-phenyl-2H[1,2,3]triazolo[4,5-f]quinoline-9-carboxylic acid], the inhibition at 1 µM was at least 80%.

For the compound `O=C(O)c1cc(-c2ccc(NS(=O)(=O)c3ccccc3)cc2)nc2ccc3nc(-c4ccccc4)oc3c12` [Compound 53, 7-(4-benzenesulfonylaminophenyl)-2-phenyloxazolo[5,4-f]-quinoline-9-carboxylic acid], the inhibition at 1 µM was at least 80%.

Regarding `O=C(O)c1cc(-c2cc(C(=O)O)c3c(ccc4nn(-c5cccc(F)c5)nc43)n2)c[nH]1` [Compound 76, 7-(5-carboxy-1H-pyrrol-3-yl)-2-(3-fluorophenyl)-2H-[1,2,3]-triazolo[4,5-f]quinoline-9-carboxylic acid], the inhibition at 1 µM was at least 80%.

As to `Cc1cccc(-n2nc3ccc4nc(-c5ccco5)cc(C(=O)O)c4c3n2)c1` [Compound 102, 7-(furan-2-yl)-2-(3-methylphenyl)-2H-[1,2,3]triazolo[4,5-f]quinoline-9-carboxylic acid], the inhibition at 1 µM is at least 80%.

For `O=C(O)c1cc(-c2cnn(Cc3ccccc3)c2)nc2ccc3nn(-c4cccc(F)c4)nc3c12` [Compound 116, 7-(1-benzyl-1H-pyrazol-4-yl)-2-(3-fluorophenyl)-2H-[1,2,3]-triazolo[4,5-f]quinoline-9-carboxylic acid], the inhibition at 1 µM is at least 80%.

The next assay deals with PGD2 production in mouse ear. The experiment in a line: Inhibitory effect on PGD2 production in mouse ear caused by allergic reaction. Format: in vivo. The note with it: 3 mg/kg orally, 1 hour before inducing antigen-antibody reaction; BALB/c mice. On the procedure: A test of PGD2 production in the mouse ear caused by allergic reaction was conducted according to the evaluation method of passive cutaneous anaphylaxis in the mouse ear by Inagaki et al. (Int.Arch.AllergyAppl. Immunol., 1988, 86 (3), 325-30) with some alteration. […]
One hour after the induction of antigen-antibody reaction, the mice were killed by cervical dislocation and the ears were cut off with scissors. […] The harvested pieces of ear tissue were immediately frozen in liquid nitrogen, and preserved at −80° C. until measurement of the quantity of PGD2.
The quantity of PGD2 was determined in the following manner. […]
Take `Cc1cccc(-n2nc3ccc4nc(-c5ccco5)cc(C(=O)O)c4c3n2)c1` [Compound 102, 7-(furan-2-yl)-2-(3-methylphenyl)-2H-[1,2,3]triazolo[4,5-f]quinoline-9-carboxylic acid]: the “inhibition of PGD2 production in mouse ear caused by allergic reaction” value was determined as 84%.
